Tests used:
[1] = target: T1, arginase activity in intact BMM-M2 cells (Mus musculus, UniProt Q61176); assay: Cell-based arginase assay: urea production by cultured BMM-M2 cells; conditions: 10 μM test compound, 24 h; for inhibition at 10 µM: read-out: Inh. urea production @10 μM (%)
T1 construct: endogenous in cells; host or cells: bone-marrow derived macrophages from male C57BL/6 mice, polarised to M2 with IL-4
T1 sequence (Q61176 1-323): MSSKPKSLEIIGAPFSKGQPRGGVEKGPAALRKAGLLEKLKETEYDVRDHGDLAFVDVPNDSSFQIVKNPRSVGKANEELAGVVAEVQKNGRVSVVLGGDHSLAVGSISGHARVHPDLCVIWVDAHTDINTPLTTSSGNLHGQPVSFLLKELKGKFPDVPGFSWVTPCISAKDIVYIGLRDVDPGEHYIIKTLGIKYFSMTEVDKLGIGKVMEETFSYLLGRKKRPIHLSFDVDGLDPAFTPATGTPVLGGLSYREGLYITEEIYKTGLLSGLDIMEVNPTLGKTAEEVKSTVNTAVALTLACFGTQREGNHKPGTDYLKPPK
Protocol: Murine bone-marrow derived macrophages (BMM) represent a convenient in vitro model that enables differentiation of these cells towards M1 or M2 macrophages. Briefly, male C57BL/6 mice 7-8 weeks old were euthanized by carbon dioxide asphyxiation. Femur and tibiae bones were removed under aseptic conditions and collected in a plate containing sterile ice-cold PBS 1×. After sterilization of bones in 70% ethanol during 1 min, bones were placed into a clean Petri dish containing fresh sterile ice-cold PBS 1×. The ends of each bone were cut and the marrow cavity was flushed using forceps and syringes filled with pre-warmed complete α-MEM growing medium (α-MEM without red phenol (Life Technologies, Cat. No. #41061-029) supplemented with 10% FBS, penicillin and streptomycin). Bone marrow (BM) cells were harvested in a 15 ml clean tube and centrifuged at 400 g for 8 min at RT. Supernatant was discarded and BM pellet was re-suspended in 5 ml Ammonium-Chloride-Potassium (ACK) buffer for 5 minutes at RT to lysis RBC. BM cell suspension was centrifuged at 400 g for 8 min at RT. Supernatant was discarded and BM cell pellet was re-suspended in complete α-MEM growing medium and passed through a 70 μm cell restrainer to eliminate solid contaminates and cellular aggregates. BM cells were seeded in 8 ml of complete α-MEM growing medium supplemented with 100 ng/ml recombinant mouse M-CSF (R&D Systems, Cat. No. #416-ML-050) in 100-mm dishes. BM cells were cultured overnight to get rid of contaminating stromal cells in a humidified incubator with 5% CO2 at 37° C. At the following day, non-adherent cells were collected in a clean 15-ml tube and centrifuged at 400 g for 8 min at RT. Cell pellet was re-suspended in complete α-MEM growing medium and counted using a hemocytometer Neubauer's chamber. Hematopoietic precursor cells were differentiated into BMM in presence of complete α-MEM growing medium supplemented 50 ng/ml M-CSF for 3 days. Finally to polarize BMM towards M2 phenotype, cells were incubated in presence 20 ng/ml of recombinant mouse IL-4 (R&D Systems, Cat. No. #404-ML-010) added to fresh complete α-MEM growing medium supplemented 50 ng/ml M-CSF for 24 h.
At the day of the experiment, BMM-M2 were treated for 24 h with vehicle (DMSO) or compounds of the invention at 1 and 10 μM prepared in fresh complete α-MEM growing medium supplemented 50 ng/ml M-CSF, 20 ng/ml IL-4 and 10 mM L-arginine (Cat. No. #A5006, Sigma Aldrich). At the next day, 70 μl aliquots of each treated culture media (supernatants) were transferred into a clear 96-well plate. Measurements of urea produced by BMM-M2 were performed using the adapted protocol detailed in Example B1. Wells without BMM-M2 containing only treatment media (vehicle) were used to determine the zero cell-derived urea production (blank). All treatments were carried out in triplicates.
The inhibition of urea production was calculated subtracting the absorbance from the blank to the absorbance from all treatments and it was expressed as the percentage of the absorbance from the reaction containing the test article treatment with respect to the absorbance from vehicle treatment (maximum of urea production).

[2] = Plasma concentration after single IV or PO dose in mice (LC/MS/MS); assay type: in vivo; design: Plasma concentration PO @ t = 30 min: dose or concentration left out as unconfirmed; conditions: 30 min after dosing
Protocol: Compounds were formulated at 0.4 and 1 mg/ml in a vehicle containing Poly-Ethylene Glycol 400 (PEG400; Cat. No. #91893, Sigma Aldrich) as dosing solutions for intravenous and oral administration, respectively. Male C57BL6 mice, approximately 8-10 weeks old (22-25 grams), were obtained from the vivarium Fundación Ciencia & Vida Chile (Santiago, Chile) and maintained in a temperature-controlled room with 12/12 hr light/dark schedule with food and water ad libitum. Animals were acclimated for a minimum period of 4 days upon arrival at the testing facility.
At the day of study, mice were weighed, identified by marking the tail with numbers using a non-toxic permanent marker and designated into the experimental groups (n=3 per group). Each mouse of IV dosing groups received the systemic administration of 2 mg/kg dosing solution via caudal vein. […] No.: FTP-2038; Instech Salomon Inc.).
Blood samples were harvested by terminal cardiac puncture at 30 min after dosing. Non-dosed mice were used to collect samples of zero time points. Whole blood was collected into microtainer tubes with (K2) EDTA (Cat. No.: 365974, Becton Dickinson & Co.). Blood samples were centrifuged immediately at 9,000 g at 4° C. for 5 min and then plasmas were separated. Plasma samples were placed into individually labeled cryovials and stored in a −80° C. freezer until LC/MS/MS bioanalysis.
The bioanalysis of plasma samples to determine concentrations of exemplary compounds of the invention was conducted with a QTRAP 4500 triple quadrupole mass spectrometer (Applied Biosystems SCIEX) in the positive ion mode and interfaced with an ekspert ultraLC 100-XL UPLC System (eksigent). Calibration standards (0.01 to 100 μM) and QCs (0.2, 2.0 and 20 μM) were prepared from naïve mouse plasma in parallel with mouse plasma study samples (60 μl) by precipitation with three volumes of ice cold internal standard solution (acetonitrile containing 20 μM of theophylline). The precipitated samples were centrifuged at 6,100 g for 30 min at 4° C. Following centrifugation, an aliquot of each supernatant was transferred into a clean sample vial and diluted with two volumes of aqueous mobile phase (0.2% formic acid in water). Samples were injected onto a reverse phase analytical column (YMC Triart C18; 2.0×50 mm; 1.9 μm; YMC CO) and eluted with a gradient of 0.1 or 0.2% formic acid in Acetonitrile. Test compound and internal standard were monitored by a multiple reaction monitoring (MRM) experiment using an Analyst software (v 1.6.2, Applied Biosystems SCIEX). Quantitation was conducted using a MultiQuant software (v 2.1, Applied Biosystems SCIEX) and the resulting calibration curve was fitted with a linear or quadratic regression and 1/× weighting. The lower limit of quantitation were between 0.01-0.03 μM.
IV and PO PK parameters were calculated from the concentration-time data using Phoenix WinNonlin software (v 6.4, Certara, Princeton, N.J.) by noncompartmental analysis in the sparse sampling mode.

Row | Structure (SMILES) | inhibition at 10 µM [1] [%] | further results
1 | NC(CCCCB(O)O)(C(=O)O)C1CCN(C2CCc3ccccc32)CC1 (single isomer, unassigned) [Compound 2, 2-amino-6-borono-2-(1-(2,3-dihydro-1H-inden-1-yl)piperidin-4-yl)hexanoic acid] |  | Inh. urea production @10 μM (%) ([1]; 10 µM): +++ (% inhibition > 25 at 10 μM test compound); Plasma concentration PO @ t = 30 min [2]: + (plasma concentration < 500 nM)
2 | NC(CCCCB(O)O)(C(=O)O)C1CCN(C2CCc3ccccc32)CC1 (single isomer, unassigned) [Compound 3, 2-amino-6-borono-2-(1-(2,3-dihydro-1H-inden-1-yl)piperidin-4-yl)hexanoic acid] | < 15 | 
3 | NC(CCCCB(O)O)(C(=O)O)C1CCN(C2CCCc3ccccc32)CC1 (single isomer, unassigned) [Compound 4, 2-amino-6-borono-2-(1-(1,2,3,4-tetrahydronaphthalen-1-yl)piperidin-4-yl)hexanoic acid] | > 25 | 
4 | NC(CCCCB(O)O)(C(=O)O)C1CCN(C2CCCc3ccccc32)CC1 (single isomer, unassigned) [Compound 5, 2-amino-6-borono-2-(1-(1,2,3,4-tetrahydronaphthalen-1-yl)piperidin-4-yl)hexanoic acid] | > 25 | Plasma concentration 2 mg/Kg IV @ t = 30 min [2]: ++ (plasma concentration > 1000 nM for test compound); Plasma concentration PO @ t = 30 min [2]: + (plasma concentration < 500 nM)
5 | NC(CCCCB(O)O)(C(=O)O)C1CCN(C2CCCc3ccccc32)CC1 (single isomer, unassigned) [Compound 6, 2-amino-6-borono-2-(1-(1,2,3,4-tetrahydronaphthalen-1-yl)piperidin-4-yl)hexanoic acid] |  | Inh. urea production @10 μM (%) ([1]; 10 µM): + (% inhibition < 15 at 10 μM)
6 | CC(c1ccccc1)N1CCC(C(N)(CCCCB(O)O)C(=O)O)CC1 (single isomer, unassigned) [Compound 10, 2-amino-6-borono-2-(1-(1-phenylethyl)piperidin-4-yl)hexanoic acid] | > 25 | Plasma concentration 2 mg/Kg IV @ t = 30 min [2]: + (plasma concentration < 500 nM); Plasma concentration PO @ t = 30 min [2]: + (plasma concentration < 500 nM)
7 | CC(c1ccccc1)N1CCC(C(N)(CCCCB(O)O)C(=O)O)CC1 (single isomer, unassigned) [Compound 11, 2-amino-6-borono-2-(1-(1-phenylethyl)piperidin-4-yl)hexanoic acid] |  | Inh. urea production @10 μM (%) ([1]; 10 µM): + (% inhibition < 15 at 10 μM)
8 | NC(CCCCB(O)O)(C(=O)O)C1CCN(C2CCc3ccccc32)CC1 (stereo not shown) [Compound 1, 2-amino-6-borono-2-(1-(2,3-dihydro-1H-inden-1-yl)piperidin-4-yl)hexanoic acid] | > 25 | 
9 | CC(c1ccccc1)N1CCC(C(N)(CCCCB(O)O)C(=O)O)CC1 (stereo not shown) [Compound 9, 2-amino-6-borono-2-(1-(1-phenylethyl)piperidin-4-yl)hexanoic acid] |  | Inh. urea production @10 μM (%) [1]: ++ (25% < % inhibition < 15% at 10 μM test compound)
10 | CC1(C)OB(CCCCC(N)(C(=O)O)C2CCN(C3CCCc4ccccc43)CC2)OC1(C)C (stereo not shown) [Compound 77, 2-amino-2-(1-(1,2,3,4-tetrahydronaphthalen-1-yl)piperidin-4-yl)-6-(4,4,5,5-tetramethyl-1,3,2-dioxaborolan-2-yl)hexanoic acid] |  | Inh. urea production @10 μM (%) [1]: ++ (25% < % inhibition < 15% at 10 μM test compound)

Second part, led by results:

Row | inhibition at 10 µM [1] [%] | Structure (SMILES) | further results
11 | > 25 | NC(CCCCB(O)O)(C(=O)O)C1CCN(C2CCc3cc(Cl)ccc32)CC1 (single isomer, unassigned) [Compound 14, 2-amino-6-borono-2-[1-(5-chloroindan-1-yl)-4-piperidyl]hexanoic acid] | 
12 | > 25 | NC(CCCCB(O)O)(C(=O)O)C1CCN(C2CCCc3cc(Cl)ccc32)CC1 (single isomer, unassigned) [Compound 17, 2-amino-6-borono-2-(1-(6-chloro-1,2,3,4-tetrahydronaphthalen-1-yl)piperidin-4-yl)hexanoic acid] | 
13 | > 25 | CNC(CCCCB(O)O)(C(=O)O)C1CCN(C2CCCc3ccccc32)CC1 (single isomer, unassigned) [Compound 79, 6-borono-2-(methylamino)-2-(1-(1,2,3,4-tetrahydronaphthalen-1-yl)piperidin-4-yl)hexanoic acid] | 
14 | > 25 | NC(CCCCB(O)O)(C(=O)O)C1CCN(C2CCCc3ccc(F)cc32)CC1 (single isomer, unassigned) [Compound 83, 2-amino-6-borono-2-(1-(7-fluoro-1,2,3,4-tetrahydronaphthalen-1-yl)piperidin-4-yl)hexanoic acid] | Plasma concentration PO @ t = 30 min [2]: + (plasma concentration < 500 nM)
15 | > 25 | NC(CCCCB(O)O)(C(=O)O)C1CCN(C2CCCCc3ccccc32)CC1 (single isomer, unassigned) [Compound 84, 2-amino-6-borono-2-(1-(6,7,8,9-tetrahydro-5H-benzo[7]annulen-5-yl)piperidin-4-yl)hexanoic acid] | 
16 | > 25 | NC(CCCCB(O)O)(C(=O)O)C1CCN(C2CCc3cc(C(F)(F)F)ccc32)CC1 (single isomer, unassigned) [Compound 85, 2-amino-6-borono-2-[1-[5-(trifluoromethyl)indan-1-yl]-4-piperidyl]hexanoic acid] | 

From patent US20220017541A1, “INHIBITORS OF ARGINASE” (Black Belt Tx Ltd, priority 2018, published 2022)
